Series [1] concerns Sprague-Dawley I.O.P.S. rat. Nature of the series: Acute toxicity LD50 oral vs i.p. and B/P ratio, rat. It counts as in vivo. The text has this: It has been determined that this discovery is not appropriate to a particular animal, by making the same observation for the Sprague-Dawley I.O.P.S. rat where the B/P ratio for magnesium chloride is greater than […]. For the respective compounds of Examples 13 and 14, the ratio is reduced in a most significant manner (p<0.001), to 3.3/2.2=1.5 and […].

In another series the test system is Swiss I.O.P.S. mice. The series can be described thus: in vivo. The following applies: Swiss I.O.P.S. mouse. As to the method: The study is carried out with Swiss I.O.P.S. mice, in lots of 20 animals of both sexes.
In the next series the test system is insulin. The series can be described thus: Potentiation of the hypoglycemic activity of insulin (test of Macallum et al.). In kind it is in vivo, rabbit. Conditions: for potentiation of the hypoglycemic activity of insulin, intravenous / potentiation of the hypoglycemic activity of insulin, oral: intravenous; for potentiation of the hypoglycemic activity of insulin, oral: non-convulsant dose of insulin; for oral activity after the metabolic and neurologic tests: summary of insulin potentiation and kainic acid tests. The method, then:
(§1) By way of example, the compounds are tested, on one hand by the test of Macallum et al., Can.

The conditions of series [2]: kainic acid administered systemically to the rat; Fariello et al. 1980; cited from earlier work.
Series [3] in a line: Antagonism of neurotoxic/convulsant activity of kainic acid, wet dog shaking (test of Fariello et al.). In kind it is in vivo, rat. The following applies: per os. As to the method:
as §1

The nature of series [4]: Test of Frances et al. (ED50 rolling, trembling).

Read-outs that look alike come from different tables or passages of the source.

In the case of `[Cl-].[Cl-].[Mg+2]` [magnesium chloride, reference compound], the “B/P ratio (oral LD50 / i.p. LD50)” value is more than 8.99 in series [1] and 2.04 with Swiss I.O.P.S. mice. For the same molecule, the “LD50 by gastric tubage (B)” value is “greater than 39.3 mmol/kg” in series [1] (oral) and 19.2 mmol/kg with Swiss I.O.P.S. mice (oral).
In the case of `NCCCS(=O)(=O)O` [homotaurine, 3-aminopropanesulfonic acid], in the series with insulin, the “potentiation of the hypoglycemic activity of insulin, intravenous” value is “active intravenously”; the “potentiation of the hypoglycemic activity of insulin, oral” value is “not orally active”; the “oral activity after the metabolic and neurologic tests” value is “inactive”. The “antagonism of neurotoxic or convulsant activity of kainic acid” value in series [2] was “antagonises the neurotoxic or convulsant activity of kainic acid”. Further, in series [3], the “reduction of the neurotoxic effect of kainic acid (wet dog shaking)” value is on record as “no significant reduction”.
With `NCCS(=O)(=O)O` [Taurine, 2-aminoethanesulfonic acid], in the series with insulin, the “potentiation of the hypoglycemic activity of insulin, intravenous” value was “active intravenously”; the “potentiation of the hypoglycemic activity of insulin, oral” value is reported as “not orally active”; the “oral activity after the metabolic and neurologic tests” value is “inactive”. Besides, in series [3], the “reduction of the neurotoxic effect of kainic acid (wet dog shaking)” value is given as “no significant reduction”. The ED50 (usually the dose at which the effect has come halfway, by size or by number of responders) in series [4] (read-out: ED50 rolling) was 4670 µmol/kg. In addition, in series [4] (read-out: ED50 trembling), the ED50 is 4340 µmol/kg.

These data come from patent US4563470A, “N-Substituted α,ωamino and imino-sulfonic acid salts and their application as cationic vectors of high cellular penetration” (Les Laboratories Meram, priority 1982, dated 1986).
